Assay results as given in patent US20010047018A1 (published 2001).

SMILES | melting point
CC(=S)NC[C@H]1CN(c2ccc3c(c2)CS(=O)(=O)N3CCF)C(=O)O1 | 90 to 93 °C (dec.)
CC(=O)NC[C@H]1CN(c2ccc3c(c2)CS(=O)(=O)N3CC#N)C(=O)O1 | 124 to 126 °C (dec.)
CC(=O)NC[C@H]1CN(c2ccc3c(c2)CS(=O)(=O)N3CCF)C(=O)O1 | 84 to 87 °C (dec.)
CC(=O)NC[C@H]1CN(c2ccc3c(c2)CS(=O)(=O)N3C)C(=O)O1 | 84 to 86 °C
